Source: patent US9474757B2, “Methods for treating cancer using TOR kinase inhibitor combination therapy” (Signal Pharmaceuticals, LLC, priority 2013, dated 2016)
Entries after “also recorded” stand apart in the source; their conditions may differ.

Legend:
SK-Hep-1 cells = test: Anchorage independent growth colony formation assay, SK-Hep-1; type: cell-based, Human
Protocol: (§1) Cell Lines/Cells. Human cell lines HepG2 and SK-Hep-1 cells were obtained from American Type Culture Collection (ATCC; Manassas, Va.). Cells were cultured in DMEM (Dulbecco's Modified Eagle's Medium) (Mediatech; Mannasas, Va.) with 10% Premium FBS (Lonza, Walkersville, Md.).
(1) Single Agent Colony Formation Assay. Nobel Agar (1.2 grams; BD; Franklin Lakes, N.J.) was placed in a 100-mL sterile bottle. Sterile water (100 mL) was added and microwaved until the agar boiled. Equal volumes of agar and 2×RPMI medium (ECE Scientific; Doylestown, Pa.) were mixed and 300 μL were transferred to each well in a 24-well flat bottom plate (BD; Franklin Lakes, N.J.). Plates were kept at 4° C. until the agar solidified. Cultures of HepG2 and SK-Hep-1 cells were harvested and resuspended in culture medium at 3.6×10^3 cells/mL. Equal volumes of agar, 2×RPMI, and cell suspension (1:1:1) were mixed in a sterile tube and 500 μL/well were immediately transferred into the 24-well plates. Plates were kept at 4° C. until the agar solidified. Culture medium (500 μL) containing compound or DMSO was added to each well (final DMSO concentration for each treatment was 0.2%). Compound 1 was tested at final concentrations of 0.1, 0.3, 1, 3, 10 and 30 μM. Cell treatments were set up in triplicate. Cells were incubated for 8-10 days at 37° C. in a 5% CO2 atmosphere. Photographs (2× magnification) of each well were taken using a Nikon DXM1200 Digital Camera and Nikon ACT1 software and saved as a TIFF file. ImageQuant TL (GE Healthcare; Piscataway, N.J.) Colony Count Software was used to count colonies. (2) Combination Study Colony Formation Assay. Nobel Agar (1.2 grams; BD; Franklin Lakes, N.J.) was placed in a 100-mL sterile bottle. Sterile water (100 mL) was added and microwaved until the agar boiled. […]
(§2) Significance versus the DMSO control was calculated using One Way ANOVA and Dunnett's Post test or unpaired t tests using GraphPad Prism v5.01.

HepG2 cells = test: Anchorage independent growth colony formation assay, HepG2; type: cell-based, Human; details: for colony formation, % of control: HepG2, single agent, 8 days
Protocol: as §1
(1) Single Agent Colony Formation Assay. Nobel Agar (1.2 grams; BD; Franklin Lakes, N.J.) was placed in a 100-mL sterile bottle. Sterile water (100 mL) was added and microwaved until the agar boiled. Equal volumes of agar and 2×RPMI medium (ECE Scientific; Doylestown, Pa.) were mixed and 300 μL were transferred to each well in a 24-well flat bottom plate (BD; Franklin Lakes, N.J.). Plates were kept at 4° C. until the agar solidified. Cultures of HepG2 and SK-Hep-1 cells were harvested and resuspended in culture medium at 3.6×10^3 cells/mL. Equal volumes of agar, 2×RPMI, and cell suspension (1:1:1) were mixed in a sterile tube and 500 μL/well were immediately transferred into the 24-well plates. Plates were kept at 4° C. until the agar solidified. Culture medium (500 μL) containing compound or DMSO was added to each well (final DMSO concentration for each treatment was 0.2%). Compound 1 was tested at final concentrations of 0.1, 0.3, 1, 3, 10 and 30 μM. Cell treatments were set up in triplicate. Cells were incubated for 8-10 days at 37° C. in a 5% CO2 atmosphere. Photographs (2× magnification) of each well were taken using a Nikon DXM1200 Digital Camera and Nikon ACT1 software and saved as a TIFF file. ImageQuant TL (GE Healthcare; Piscataway, N.J.) Colony Count Software was used to count colonies. (2) Combination Study Colony Formation Assay. Nobel Agar (1.2 grams; BD; Franklin Lakes, N.J.) was placed in a 100-mL sterile bottle. Sterile water (100 mL) was added and microwaved until the agar boiled. Equal volumes of agar and 2×RPMI medium (ECE Scientific; Doylestown, Pa.) were mixed and 300 μL were transferred to each well in a 24-well flat bottom plate (BD; Franklin Lakes, N.J.). Plates were kept at 4° C. until the agar solidified. Cultures of HepG2 and SK-Hep-1 cells were harvested and resuspended in culture medium at 3.6×10^3 cells/mL. Equal volumes of agar, 2×RPMI, and cell suspension (1:1:1) were mixed in a sterile tube and 500 µL/well were immediately transferred into the 24-well plates. Plates were kept at 4° C. until the agar solidified. Culture medium (500 μL) containing compound or DMSO was added to each well (final DMSO concentration for each treatment was 0.2%). Cells were treated with single treatment as follows: Compound 1 was tested at final concentrations of 0.1 and 0.3 μM. Cell treatments were set up in triplicate. Cells were incubated for 8-10 days at 37° C. in a 5% CO2 atmosphere. Photographs (2× magnification) of each well were taken using a Nikon DXM1200 Digital Camera and Nikon ACT1 software and saved as a TIFF file. ImageQuant TL (GE Healthcare; Piscataway, N.J.) Colony Count Software was used to count colonies.
as §2

WSU-DLCL2 xenograft = test: DLBCL xenograft model (WSU-DLCL2); type: in vivo, SCID mice; details: for tumor volume reduction (TVR) vs vehicle: initial study, oral QD, end of 3-week dosing, Day 35
Protocol: Severe combined immunodeficiency (SCID) mice were implanted with human DLBCL cell line (WSU-DLCL2) into the flank. Treatment of compounds started between Day 11 and Day 14 after cell inoculation. Randomized groups of mice (n=9 to 10/group) were treated with the single agents (Compound 1, Compound A or Compound AA) or the combination of Compound 1/Compound A, Compound A/Compound AA, or Compound 1/Compound AA. Compounds were administered orally on a once daily (Compound 1 and Compound A) or twice daily […] schedule for 21 days. The positive control consisted of CHOP therapy (combination of cyclophosphamide, doxorubicin, vincristine and prednisone). Compound 1 and Compound A were formulated in CMC-Tween (carboxymethylcellulose/Tween 80/deionized water). Compound AA was suspended in DSP (dimethylsulphoxide/solutol/phosphate buffered saline).
Initial studies were conducted in order to determine the antitumor activity of Compound 1 and to identify a dose level for the combination studies. In the WSU-DLCL2 xenograft model, Compound 1 inhibited tumor growth in a dose-dependent fashion. […] In a subsequent combination study, Compound 1 was dosed at 10 mg/kg, once daily (QD). Compound A and Compound AA were dosed at 30 mg/kg (QD) and 50 mg/kg (BID), respectively.

OCI-Ly10 xenograft = test: OCI-Ly10 DLBCL xenograft model; type: in vivo, SCID mice; details: extended schedule qd×28/4/21: Compound A 10 mg/kg, Compound 1 3 mg/kg
Source text: OCI-Ly10 cells are derived from a diffuse-large B-cell lymphoma, a type of non-Hodgkins lymphoma. Female SCID mice (Fox Chase SCID®, CB 17/Icr-Prkdcscid, Charles River), characterized by severe combined T and B cell immunodeficiency, were 10 weeks old, with body weights ranging from 15.4 to 24.2 g, on Day 1 of this study. In brief, female CB.17 SCID mice were inoculated with 5×10^6 OCI-Ly10 cells subcutaneously, and tumors were allowed to grow to approximately 100-150 mm^3 before stratification into treatment groups, so as to yield groups with comparably sized tumors prior to treatment. In addition to the efficacy treatment groups, some mice were stratified into short-term treatment groups and their tumors were collected 4 hours post final dosing in groups that received saline, 30 mg/kg or 10 mg/kg Compound A, or 3 mg/kg Compound 1 once daily for seven days, starting on day 27. Frozen, and fixed paraffin-embedded, samples were analyzed. In the efficacy arm of the study, dosing began on Day 1 (D1) in 12 groups of mice (n=10/group) with established subcutaneous tumors (mean volumes, 120-129 mm^3). Compound A (at two dose levels) and Compound 1 (at one dose level) were each administered once daily for 28 days (qd×28). Control mice received the vehicle, 5% DMSO/15% Solutol® HS15/80% PBS, p.o. b.i.d.×28. On D29 a 21-day dosing extension, from day 33 to day 53, in the control and five test groups was implemented, resulting in b.i.d.×28/4/21 or qd×28/4/21 schedules for these groups.
Tumors were calipered twice weekly, and each mouse in the efficacy study was euthanized when its tumor reached the 1000 mm^3 volume endpoint, or on day 61, whichever came first. Efficacy was determined from tumor growth delay (TGD), defined as the increase in the median time-to-endpoint (TTE) in drug-treated (T) versus vehicle-treated (C) mice, and from the significance of survival extension.

[1] = system: doxorubicin-resistant Ramos cell xenografts; test: CIVO local injection, parental and doxorubicin-resistant RAMOS xenograft, cleaved caspase 3; type: in vivo, Nu/Nu mice; details: tumors harvested 24 hour post injection
Protocol: Anesthetized Nu/Nu mice harboring xenografted tumors were injected with multiple individual compounds or compound combinations, simultaneously, each into a distinct location of the tumor. Precise, controlled delivery of the compounds was evaluated for spatially defined and cellular changes around sites of tumor microinjection across xenograft models of DLBCL. Tumors were resected and injection quality was assessed by IVIS imaging of co-injected near-infrared tracking dye. Sections from representative regions down the z-axis of the tumor were prepared for staining with biomarkers of pathway inhibition and tumor response. Samples were then batch scanned in a Caliper Pannoramic slide scanner, resulting in high resolution images compatible with single cell analysis and subsequent data quantification via Presage's CIVO™ analyzer custom image analysis platform (for technology description, see R. Klinghoffer et al, AACR, 2014 and Presagebio.com).
Mice with parental or doxorubicin-resistant Ramos cell xenografts were injected locally with vehicle (4 μL), Compound 2 (13 μg in 4 μL injected), Compound 1 (39 μg in 4 μL injected), or Vincristine (1.47 μg in 4 μL (400 μM) injected). Tumors were harvested 24 hour post injection.

[2] = combination study, single agents or in combination

With `CO[C@H]1CC[C@H](N2C(=O)CNc3ncc(-c4ccc(C(C)(C)O)nc4)nc32)CC1` [Compound 1, 7-(6-(2-hydroxypropan-2-yl)pyridin-3-yl)-1-((1r,4r)-4-methoxycyclohexyl)-3,4-dihydropyrazino-[2,3-b]pyrazin-2(1H)-one] the “anti-colony forming activity” value (SK-Hep-1 cells; SK-Hep-1, concentrations of 0.1 to 100 μM) was “dose-dependent and significant anti-colony forming activity”, the “inhibition of colony formation” value (SK-Hep-1 cells; SK-Hep-1, single agent, 3 μM and higher) was 100% and the “colony formation, % of control” value (SK-Hep-1 cells; SK-Hep-1, single agent, 0.3-30 μM, 8-10 days) was 0-45 % of control. The “anti-colony forming activity” value (HepG2 cells; HepG2, concentrations of 0.1 to 100 μM) was “dose-dependent and significant anti-colony forming activity”, the “colony formation, % of control” value (HepG2 cells; 0.1 μM) was 74 % of control and the “colony formation, % of control” value (HepG2 cells; 0.3 μM) was 57 % of control. For the same molecule, the “colony formation, % of control” value (HepG2 cells; 1 μM) was 33 % of control, the “colony formation, % of control” value (HepG2 cells; 3 μM) was 24 % of control and the “colony formation, % of control” value (HepG2 cells; 10 μM) was 16 % of control. For the same molecule, the “colony formation, % of control” value (HepG2 cells; 30 μM) was 11 % of control, the “decrease in tumor volume (TVR) vs vehicle” value (WSU-DLCL2 xenograft; combination study, Day 34, Compound 1 10 mg/kg QD, Compound A 30 mg/kg QD, Compound AA 50 mg/kg BID, oral) was 29% and the body weight loss (WSU-DLCL2 xenograft; [2]) was “No significant body weight loss”. For the same molecule, the “tumor volume reduction (TVR) vs vehicle” value (WSU-DLCL2 xenograft; 1 mg/kg) was roughly 22%, the “tumor volume reduction (TVR) vs vehicle” value (WSU-DLCL2 xenograft; 3 mg/kg) was roughly 28% and the body weight loss (WSU-DLCL2 xenograft; initial study, 1, 3 and 10 mg/kg) was “No significant body weight loss”. For the same molecule, the “tumor growth delay (TGD), %” value (OCI-Ly10 xenograft) was 73%, the PRs / regressions (OCI-Ly10 xenograft; alone or combined) was “one” and the “survivors (n=10/group)” value (OCI-Ly10 xenograft; alone or combined) was “five”. The “tumor growth delay (TGD)” value (OCI-Ly10 xenograft; alone or combined) was 23.8 days.
For `CCN1C(=O)CNc2ncc(-c3ccc(-c4nc[nH]n4)nc3C)nc21` [Compound 2, 1-ethyl-7-(2-methyl-6-(1H-1,2,4-triazol-3-yl)pyridin-3-yl)-3,4-dihydropyrazino[2,3-b]pyrazin-2(1H)-one], the “sensitivity of doxorubicin resistant vs parental Ramos cells (cleaved caspase 3 vs distance from injection site)” value [1] was “increased sensitivity; also recorded: more sensitive”.
`C=CC(=O)Nc1cccc(Nc2nc(Nc3ccc(OCCOC)cc3)ncc2F)c1` [Compound AA, N-(3-(5-fluoro-2-(4-(2-methoxyethoxy)phenylamino)pyrimidin-4-ylamino)phenyl)acrylamide] was tested, and the “antitumor activity” value (WSU-DLCL2 xenograft; combination study, Day 34, Compound 1 10 mg/kg QD, Compound A 30 mg/kg QD, Compound AA 50 mg/kg BID, combinations compared with single agent) was “No significant antitumor activity; also recorded: inactive” and the body weight loss (WSU-DLCL2 xenograft; [2]) was “No significant body weight loss”.
In the case of `CC[C@]1(O)C[C@H]2CN(CCc3c([nH]c4ccccc34)[C@@](C(=O)OC)(c3cc4c(cc3OC)N(C=O)[C@H]3[C@@](O)(C(=O)OC)[C@H](OC(C)=O)[C@]5(CC)C=CCN6CC[C@]43[C@@H]65)C2)C1` [Vincristine, reference compound], the “sensitivity of doxorubicin resistant vs parental Ramos cells (cleaved caspase 3 vs distance from injection site)” value [1] is reported as “resistant”.
